Assay results: patent publication US11746125B2, “Biomimetic peptides derived from biological source and their uses in retarding aging and improving skin” (TCI CO., LTD., priority 2019, dated 2023)

Tested on: human fibroblast cell line (CCD-966SK)
Assay: Assay in increasing expression of genes: human fibroblast cells cultured with peptides, RNA detected by nCounter Analysis System
Type: cell-based
Description: A human fibroblast cell line (CCD-966SK) was used to assay gene expression affected by the peptides of the present disclosure. 1×10^5 of fibroblast cells were seeded and cultured in a 6-well plate containing 2 ml of X-VIVO™ 10 medium. […] The cells cultured with the medium only for 6 or 24 hours were used as control.
The resulting cultured cells were washed with PBS and lysed by adding a lysis reagent. The resulting cell lysis solutions were extracted by RNA Extraction Kit (GENEzol™ 96 Well TriRNA Pure Kit, Geneaid) to collect the RNAs in the cells. The expression of genes was detected by the nCounter Analysis System (NanoString Technologies, Inc.)

[1] = peptides 12.5 and 25 μg/ml, 6 or 24 hours
[2] = 12.5 μg/ml, 24 hours, vs control

Question: What does the source list for “LKSGR [Latrol-5, synthetic 5-mer peptide LKSGR]”?
Answer: expression of anti-aging genes (NADSYN, CCT2 and CCT8) (25 μg/ml, 6 hours, vs control): increases; expression of collagen I gene (COL1A2) (25 μg/ml, 6 hours, vs control): increases; expression of genes relating to collagen breakdown (MMP-1) (25 μg/ml, 6 hours, vs control): inhibiting; expression of DNA repair genes (XRCC5 and/or MSH6) (6 hours, vs control): increases; expression of telomerase genes (TERC) (24 hours, vs control): increase; expression of DNA repair genes (UNG, MSH6, XRCCS and/or MSH6) [1]: increase; expression of anti-aging genes (NADSYN, Atg1, MRPS5, CCT2 and/or CCT8) [1]: increase; expression of telomerase genes (TERC) [1]: increase

Question: With “QRIKYIKP [Chiro-8, synthetic 8-mer peptide QRIKYIKP]” as the substance, how does the “expression of moisture-retention related genes (SMPD1)” value (12.5 μg/ml and 25 μg/ml, 24 hours, vs control) read?
Answer: The value was “increase”.

Question: And the “expression of anti-aging genes (NADSYN, MRPS5, Ub1-5 and/or FOXO)” value [2]?
Answer: Its value is “increase”.

Question: What about the “expression of collagen I gene (COLA1)” value (12.5 μg/ml, vs control) of the same substance?
Answer: The value was “increases”.

Question: What about the “expression of collagen IV gene (COL4A1)” value (12.5 μg/ml, vs control) of the same substance?
Answer: The value was “increases”.

Question: What about the “expression of elastin gene (ELN)” value (12.5 μg/ml, vs control) of the same substance?
Answer: Its value is “increases”.

Question: And the “expression of anti-inflammatory factor IL-6” value (24 hours)?
Answer: Its value is “inhibits”.

Question: What about the “expression of MMP1” value (24 hours, vs control) of the same substance?
Answer: Its value is “inhibiting”.

Question: And the “expression of anti-aging genes (NADSYN, MRPS5, Ub1-5 and/or FOXO)” value [1]?
Answer: The value was “increase”.

Question: What about the “expression of anti-inflammatory factor IL-6” value [1] of the same substance?
Answer: Its value is “inhibits”.

Question: What about the “expression of collagen I gene” value [1] of the same substance?
Answer: Its value is “increases”.

Question: And the “expression of elastin genes” value [1]?
Answer: The value was “increases”.

Question: And the “expression of genes relating to collagen breakdown (MMP-1)” value (“expression of genes relating” for short) [1]?
Answer: Its value is “inhibiting”.

Question: What about the “expression of moisture-retention related genes (SMPD1)” value [1] of the same substance?
Answer: The value was “increases”.

Question: Which MMP1 (2.5 μg/ml, 12 hours, vs control) does the source give for “QKRRTCK [Heter-7, synthetic 7-mer peptide QKRRTCK]” here?
Answer: The MMP1 was “inhibiting”.

Question: What about the “expression of collagen I gene” value (12.5 μg/ml, vs control) of the same substance?
Answer: The value was “increases”.

Question: And the “expression of TIMP1 gene” value (25 μg/ml, 12 hours, vs control)?
Answer: Its value is “increases”.

Question: What about the “expression of anti-aging genes (Atg1 and Ub15)” value (25 μg/ml, 12 hours, vs control) of the same substance?
Answer: The value was “increase”.

Question: And the “expression of telomerase gene (TERC)” value (25 μg/ml, 12 hours, vs control)?
Answer: The value was “increase”.

Question: And the “expression of DNA repair genes (ERCC1 and XRCC5)” value (25 μg/ml, vs control)?
Answer: The value was “increase”.

Question: What about the “expression of anti-oxidation gene SOD2” value (25 μg/ml, vs control) of the same substance?
Answer: The value was “increase”.

Question: And the “expression of DNA repair genes (ERCC1 and XRCCS)” value (peptides 12.5 and 25 μg/ml)?
Answer: The value was “increases”.

Question: And the “expression of anti-aging genes (Atg1 and Ubl5)” value (peptides 12.5 and 25 μg/ml)?
Answer: The value was “increases”.

Question: What about the “expression of anti-oxidation gene SOD2” value (peptides 12.5 and 25 μg/ml) of the same substance?
Answer: The value was “increases”.

Question: What about the “expression of TIMP1” value [1] of the same substance?
Answer: Its value is “increases”.

Question: And the “expression of collagen I gene” value [1]?
Answer: Its value is “increases”.

Question: What about the “expression of genes relating” value [1] of the same substance?
Answer: Its value is “inhibiting”.

Question: What about the “expression of telomerase genes (TERC)” value [1] of the same substance?
Answer: The value was “increases”.

Question: “VKNAKY [Hapa-6, synthetic 6-mer peptide VKNAKY]” was tested. Which “expression of anti-aging genes (Atg1, Ub1-5 and FOXO)” value (12.5 μg/ml, 6 hours, vs control) did it give?
Answer: Its value is “increase”.

Question: And the “expression of genes relating” value [2]?
Answer: Its value is “inhibits”.

Question: And the “expressions of moisture-retention related genes (ELG-F and GBA)” value (25 μg/ml, vs control)?
Answer: Its value is “increase”.

Question: What about the “expression of DNA repair genes (ERCC1)” value (12.5 and 25 μg/ml, 6 hours, vs control) of the same substance?
Answer: Its value is “increase”.

Question: What about the “expression of telomerase genes (TERC)” value (12.5 and 25 μg/ml, 24 hours, vs control) of the same substance?
Answer: The value was “increase”.

Question: What about the “expression of TIMP1” value (6 hours, vs control) of the same substance?
Answer: Its value is “increase”.

Question: What about the “expression of elastin genes (ELN)” value (6 hours, vs control) of the same substance?
Answer: The value was “increase”.

Question: And the “expression of collagen I genes (COL1A2)” value (24 hours, vs control)?
Answer: Its value is “increase”.

Question: And the “expression of DNA repair genes (ERCC1)” value [1]?
Answer: Its value is “increase”.

Question: And the “expression of TIMP1” value [1]?
Answer: Its value is “increase”.

Question: What about the “expression of anti-aging genes (Atg1, Ubl-5 and FOXO)” value [1] of the same substance?
Answer: Its value is “increase”.

Question: What about the “expression of collagen I gene” value [1] of the same substance?
Answer: The value was “increase”.

Question: What about the “expression of elastin genes” value [1] of the same substance?
Answer: The value was “increase”.

Question: What about the “expression of genes relating” value [1] of the same substance?
Answer: The value was “inhibits”.

Question: What about the “expression of moisture-retention related genes (ELG-F and GBA)” value [1] of the same substance?
Answer: Its value is “increase”.

Question: What about the “expression of telomerase genes (TERC)” value [1] of the same substance?
Answer: The value was “increase”.

Question: With “KIFKF [Chiro-5, synthetic 5-mer peptide KIFKF]” as the substance, how does the “expression of anti-aging genes (NADSYN, MRPS5, Ub1-5 and/or FOXO)” value [2] read?
Answer: The value was “increase”.

Question: And the “expression of MMP1” value (25 μg/ml, vs control)?
Answer: Its value is “inhibiting”.

Question: And the “expression of collagen I gene (COL1A2)” value (25 μg/ml, vs control)?
Answer: Its value is “increase”.

Question: And the “expression of anti-aging genes (NADSYN, MRPS5, Ub1-5 and/or FOXO)” value [1]?
Answer: The value was “increase”.

Question: What about the “expression of collagen I gene” value [1] of the same substance?
Answer: Its value is “increases”.

Question: And the “expression of genes relating” value [1]?
Answer: Its value is “inhibiting”.

Question: How did the “expression of SMPD1 (moisture-retention related gene) and/or HAS2” value (25 μg/ml, 6 hours, vs control) turn out when “TKSGKF [Latrol-6, synthetic 6-mer peptide TKSGKF]” was run?
Answer: The value was “increases”.

Question: What about the “expression of anti-aging genes (NADSYN, Atgl, MRPS5)” value (25 μg/ml, 24 hours, vs control) of the same substance?
Answer: Its value is “increases”.

Question: What about the “expression of collagen I gene (COL1A1)” value (25 μg/ml, 24 hours, vs control) of the same substance?
Answer: The value was “increases”.

Question: And the “expression of collagen IV gene (COL4A1)” value (25 μg/ml, 24 hours, vs control)?
Answer: The value was “increases”.

Question: And the “expression of elastin gene (ELN)” value (25 μg/ml, 24 hours, vs control)?
Answer: Its value is “increases”.

Question: And the “expression of DNA repair genes (UNG and MSH6)” value (6 hours or 24 hours, vs control)?
Answer: Its value is “increases”.

Question: And the “expression of telomerase genes (TERC)” value (6 hours, vs control)?
Answer: Its value is “increase”.

Question: And the “expression of DNA repair genes (UNG, MSH6, XRCCS and/or MSH6)” value [1]?
Answer: Its value is “increase”.

Question: And the “expression of SMPD1 (moisture-retention related genes) and/or HSAS2” value [1]?
Answer: Its value is “increases”.

Question: What about the “expression of anti-aging genes (NADSYN, Atg1, MRPS5, CCT2 and/or CCT8)” value [1] of the same substance?
Answer: Its value is “increase”.

Question: What about the “expression of collagen I gene” value [1] of the same substance?
Answer: Its value is “increases”.

Question: And the “expression of collagen IV gene” value [1]?
Answer: Its value is “increases”.

Question: And the “expression of elastin genes” value [1]?
Answer: Its value is “increases”.

Question: What about the “expression of genes relating” value [1] of the same substance?
Answer: Its value is “inhibiting”.

Question: And the “expression of telomerase genes (TERC)” value [1]?
Answer: The value was “increase”.

Question: And the “expression of collagen I gene” value (text summary referring to FIG. 12 (A))?
Answer: The value was “increases”.

Question: With “PRPIK [Hapa-5, synthetic 5-mer peptide PRPIK]” as the substance, how does the “expression of DNA repair genes (ERCC1)” value [2] read?
Answer: Its value is “increase”.

Question: And the “expression of telomerase genes (TERC)” value [2]?
Answer: The value was “increase”.

Question: And the “expression of anti-aging genes (Atg1, Ub1-5 and FOXO)” value (25 μg/ml, 24 hours, vs control)?
Answer: Its value is “increase”.

Question: What about the “expression of genes relating” value (25 μg/ml, 24 hours, vs control) of the same substance?
Answer: The value was “inhibits”.

Question: What about the “expression of TIMP1” value (6 hours, vs control) of the same substance?
Answer: Its value is “increases”.

Question: What about the “expression of collagen IV genes (COL4A1)” value (6 hours, vs control) of the same substance?
Answer: Its value is “increases”.

Question: What about the “expression of elastin genes (ELN)” value (6 hours, vs control) of the same substance?
Answer: The value was “increases”.

Question: And the “expression of DNA repair genes (ERCC1)” value [1]?
Answer: Its value is “increase”.

Question: And the “expression of TIMP1” value [1]?
Answer: Its value is “increase”.

Question: And the “expression of anti-aging genes (Atg1, Ubl-5 and FOXO)” value [1]?
Answer: Its value is “increase”.

Question: What about the “expression of collagen IV gene” value [1] of the same substance?
Answer: The value was “increase”.

Question: And the “expression of elastin genes” value [1]?
Answer: Its value is “increase”.

Question: And the “expression of genes relating” value [1]?
Answer: Its value is “inhibits”.

Question: What about the “expression of moisture-retention related genes (ELG-F and GBA)” value [1] of the same substance?
Answer: The value was “increase”.

Question: What about the “expression of telomerase genes (TERC)” value [1] of the same substance?
Answer: Its value is “increase”.

Question: What about the “expressions of moisture-retention related genes (ELG-F and GBA)” value (vs control, concentration not given) of the same substance?
Answer: Its value is “increase”.
